# pIC50: −log10 of the molar value.
# Molecular target: T1, 15-hydroxyprostaglandin dehydrogenase [NAD(+)] (Homo sapiens, UniProt P15428)
# T1 sequence (P15428 whole entry): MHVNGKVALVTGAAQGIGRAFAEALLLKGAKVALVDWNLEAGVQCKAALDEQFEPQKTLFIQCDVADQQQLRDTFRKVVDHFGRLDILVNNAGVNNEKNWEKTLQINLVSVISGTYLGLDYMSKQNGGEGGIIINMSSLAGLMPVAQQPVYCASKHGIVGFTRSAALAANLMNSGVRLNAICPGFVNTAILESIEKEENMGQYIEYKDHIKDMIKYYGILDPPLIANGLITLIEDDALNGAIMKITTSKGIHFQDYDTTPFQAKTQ
# Assay: In Vitro Assay
compound,measurement,value
"CCCCC(=O)c1sc2nc(-c3nccs3)ccc2c1N [US9790233, ID SW206992]",pIC50,8.85

# From BindingDB's records for patent US9790233 (Case Western Reserve University, 2017)
